Test results from patent publication US12161722B2, “Bifunctional heterocyclic compound having BTK degradation function via ubiquitin proteasome pathway, and use thereof” (KOREA RESEARCH INSTITUTE OF CHEMICAL TECHNOLOGY, priority 2021, dated 2024).

Tests used:
[1] = molecular target: T1, WT BTK protein (Homo sapiens, UniProt Q06187); test: BTK protein degradation assay (Western blotting), WT BTK; assay type: cell-based; details: concentration range accounting for 50% degradation of WT BTK protein, TMD-8 or RAMOS cells, 24 hours
T1 construct: measured for intracellular BTK protein levels by Western blotting; endogenous in cells; host or cells: TMD-8 or RAMOS cells
Summary of the method: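 TMD-8 cells (1×10^6 cells/mL) treated 24 h with compound serial dilutions, then lysed in RIPA. Equal protein loads analysed by Western blot for BTK with GAPDH/β-actin as loading controls; activity binned by concentration giving 50% WT BTK degradation.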

[2] = molecular target: T2, C481S BTK protein (Homo sapiens, UniProt Q06187, C481S); test: BTK protein degradation assay (Western blotting), C481S BTK; assay type: cell-based; details: concentration range accounting for 50% degradation of C481S BTK protein, 293T BTK MUT (C481S) cells
T2 construct: expressed in transfected cells; host or cells: 293T BTK MUT (C481S) cells
Method: TMD-8, RAMOS, or 293T BTK MUT (C481S) cells were treated with the synthesized compounds and measured for intracellular BTK protein levels by Western blotting. The protocol of the experiment using TMD-8 cells is as follows.
The 12-well plates were treated as follows. A 10 mM stock was 1/10 diluted in series with DMSO ([…]) to form final concentrations of 10, 1, 0.1, 0.01, 0.001, and 0.0001 mM. The compounds with such concentrations were applied to cells, followed by harvesting the cells 24 hours later. For a negative control, a 1/10 dilution of DMSO in the medium (3 mL DMSO+27 mL medium) was used.
The 1-mL cell culture in each well was passed many times through a pipette and then transferred into a 1.5-mL microtube before centrifugation (500 g, 5 min, 4° C.). The supernatant was discarded and the cell pellet was washed with PBS. After centrifugation (500 g, 5 min, 4° C.) again, the supernatant was discarded and the cell pellet was taken.
A lysis buffer was prepared as follows. RIPA buffer (Biosesang, RC2038-050-00)+0.5 mM PMSF (SIGMA, P7626)+1×Protease/Phosphatase Inhibitor (Cell signaling, 5872S) was added in an amount […] per well and left for 30 minutes on ice (vortexing at 0 and 30 minutes) before sonication (5 cycles of pulse for 10 seconds and rest for 30 seconds, 70% amplification). The supernatant obtained by centrifugation (15000 g, 15 min, 4° C.) was transferred into a new microtube. Cells in each well of 96-well plates were 1/2 diluted with the RIPA buffer and incubated at 37° C. for 30 minutes with […] of a 50:1 mixture of BCA reagents A and B in BCA Protein Assay Kit (iNtRON, 21071). After being cooled for 10 minutes, the 96-well plates were measured for absorbance at 562 nm on the BioTek, SYNERGY H1 microplate reader. Samples were prepared by protein quantification based on the absorbance measurements and then boiled at 70° C. for 10 minutes. The sample buffer used in the case was prepared by mixing a NuPAGE or a Bolt 4× sample buffer (Invitrogen) and its 10× sample reducing agent depending on the gel to be used, and protein dilution was made in a RIPI buffer.
The samples were loaded in the same amount into a NuPAGE or Bolt Bis-tris 4-12% gradient gel and allowed to run therein (200 V, 35 minutes). The separated proteins were transferred onto a […] NC membrane, using Trans-blot Turbo (BIO-RAD) (1.3 A constant, 25V limit, 15 minutes). The membrane was blocked at room temperature for 1 hour with skim milk or Intercept Blocking Buffer (LI-COR, 927-60001):0.1% TBST=1:1. The membrane was incubated with Anti BTK Rabbit (1:1,000 in 5% skim milk/0.2% TBST, size: 77 kDa, Cell signaling Technology) at 4° C. overnight O/N or at room temperature for 2 hours and with Anti GAPDH Rabbit (1:10,000 in 5% BSA/0.2% TBST, size: 36 kDa, GENETEX) and Anti β-actin mouse (1:10,000 in 5% BSA/0.2% TBST, RT, size: 43 kDa, GENETEX) at room temperature for 1 or 3 hours. Then, the membrane was washed three times with 0.5% TBST for 5 minutes each time before incubation with the second antibody Anti-Rabbit IgG (1:5,000 in 5% Skim milk/TBST, CST), IRDye® 800CW Goat anti-Rabbit IgG Secondary Antibody (1:10,000 in 5% skim/TBST, RT 45 min), or IRDye® 680RD Goat anti-Mouse IgG Secondary Antibody (1:10,000 in 5% skim/TBST, RT 45 min) for 45 minutes at room temperature in a rocker. The membrane was washed five times with 0.5% TBST for 5 minutes in each time, followed by detection with LI-COR, Odyssey. In this regard, the detection proceeded, as it was, for house-keeping genes while using SuperSignal West Pico PLUS Chemiluminescent Substrate or SuperSignal West femto Maximum Sensitivity Substrate for BTK detection.
According to the concentration ranges of compounds accounting for 50% degradation of WT BTK protein and C481S BTK protein, the activities are expressed as +++(0.0001-0.01 μM), ++(0.01-1 μM), +(1-10 μM), −(>10 μM), and NT (not tested). […]

T1 sequence (Q06187 whole entry): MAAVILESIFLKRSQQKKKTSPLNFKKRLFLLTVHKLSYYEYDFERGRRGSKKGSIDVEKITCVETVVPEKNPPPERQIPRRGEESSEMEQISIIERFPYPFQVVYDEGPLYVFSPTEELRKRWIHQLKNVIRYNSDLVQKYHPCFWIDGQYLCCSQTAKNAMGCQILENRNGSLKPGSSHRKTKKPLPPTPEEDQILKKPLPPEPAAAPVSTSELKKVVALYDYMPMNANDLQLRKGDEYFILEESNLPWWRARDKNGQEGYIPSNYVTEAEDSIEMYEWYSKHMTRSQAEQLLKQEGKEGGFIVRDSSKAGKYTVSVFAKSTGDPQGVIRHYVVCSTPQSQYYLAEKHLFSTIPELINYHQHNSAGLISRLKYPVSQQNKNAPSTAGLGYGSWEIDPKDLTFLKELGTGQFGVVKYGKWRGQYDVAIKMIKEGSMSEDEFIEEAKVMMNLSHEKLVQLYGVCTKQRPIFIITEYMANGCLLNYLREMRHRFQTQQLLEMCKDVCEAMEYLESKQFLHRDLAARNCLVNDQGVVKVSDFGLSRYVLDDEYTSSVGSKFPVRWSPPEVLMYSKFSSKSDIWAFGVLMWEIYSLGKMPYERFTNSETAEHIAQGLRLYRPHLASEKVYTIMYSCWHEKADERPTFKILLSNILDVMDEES
T2 sequence (Q06187 whole entry C481S): as the sequence (Q06187 whole entry) above, with C481S counted along it

Row | SMILES | DC50 [1] [µM] | DC50 [2] [µM]
1 | Cc1cccc(C)c1Nc1nn(C)c2nc(Nc3ccc4c(c3)CN(C(=O)CCCCCCCCCCCNc3cccc5c3C(=O)N(C3CCC(=O)NC3=O)C5=O)CC4)ncc12 (stereo not drawn) [Compound 7, 4-((12-(7-((3-((2,6-Dimethylphenyl)amino)-1-methyl-1H-pyrazolo[3,4-d]pyrimidin-6-yl)amino)-3,4-dihydroisoquinolin-2 (1H)-yl)-12-oxododecyl)amino)-2-(2,6-dioxopiperidin-3-yl)isoindoline-1,3-dione] | 0.0001 to 0.01 | > 10
2 | Cc1cccc(C)c1Nc1nn(C)c2nc(Nc3ccc4c(c3)CN(C(=O)CCOCCOCCOCCOCCNC(=O)CNc3ccc5c(c3)C(=O)N(C3CCC(=O)NC3=O)C5=O)CC4)ncc12 (stereo not drawn) [Compound 22, N-(15-(7-((3-((2,6-dimethylphenyl)amino)-1-methyl-1H-pyrazolo[3,4-d]pyrimidin-6-yl)amino)-3,4-dihydroisoquinolin-2 (1H)-yl)-15-oxo-3,6,9,12-tetraoxapentadecyl)-2-((2-(2,6-dioxopiperidin-3-yl)-1,3-dioxoisoindolin-5-yl)amino)acetamide] | 0.0001 to 0.01 | > 10
3 | Cc1cccc(C)c1Nc1nn(C)c2nc(Nc3ccc4c(c3)CN(C(=O)COCCOCCNC(=O)C3CCN(c5cccc6c5C(=O)N(C5CCC(=O)NC5=O)C6=O)CC3)CC4)ncc12 (stereo not drawn) [Compound 4, N-(2-(2-(2-(7-((3-((2,6-Dimethylphenyl)amino)-1-methyl-1H-pyrazolo[3,4-d]pyrimidin-6-yl)amino)-3,4-dihydroisoquinolin-2 (1H)-yl)-2-oxoethoxy)ethoxy)ethyl)-1-(2-(2,6-dioxopiperidin-3-yl)-1,3-dioxoisoindolin-4-yl)piperidine-4-carboxamide] | 0.01 to 1 | 1 to 10
4 | Cc1cccc(Cl)c1Nc1nn(C)c2nc(Nc3ccc4c(c3)CN(CC3CCN(c5ccc6c(c5)C(=O)N(C5CCC(=O)NC5=O)C6=O)CC3)CC4)ncc12 (stereo not drawn) [Compound 85, 5-(4-((7-((3-((2-Chloro-6-methylphenyl)amino)-1-methyl-1H-pyrazolo[3,4-d]pyrimidin-6-yl)amino)-3,4-dihydroisoquinolin-2 (1H)-yl)methyl)piperidin-1-yl)-2-(2,6-dioxopiperidin-3-yl)isoindoline-1,3-dione] | 0.0001 to 0.01 | 0.0001 to 0.01
5 | Cc1cccc(C)c1Nc1nn(C)c2nc(Nc3ccc4c(c3)CN(C(=O)[C@H]3CCCN3C(=O)CN3CCN(c5ccc6c(c5)C(=O)N(C5CCC(=O)NC5=O)C6=O)CC3)CC4)ncc12 (stereo partly drawn) [Compound 32, 5-(4-(2-((R)-2-(7-((3-((2,6-Dimethylphenyl)amino)-1-methyl-1H-pyrazolo[3,4-d]pyrimidin-6-yl)amino)-1,2,3,4-tetrahydroisoquinoline-2-carbonyl)pyrrolidin-1-yl)-2-oxoethyl)piperazin-1-yl)-2-(2,6-dioxopiperidin-3-yl)isoindoline-1,3-dione] | 0.01 to 1 | 1 to 10
6 | Cc1cccc(C)c1Nc1nn(C)c2nc(Nc3ccc4c(c3)CN(C(=O)C3CCN(C(=O)C5CCN(c6ccc7c(=O)n(C8CCC(=O)NC8=O)nnc7c6)CC5)CC3)CC4)ncc12 (stereo not drawn) [Compound 60, 3-(7-(4-(4-(7-((3-((2,6-Dimethylphenyl)amino)-1-methyl-1H-pyrazolo[3,4-d]pyrimidin-6-yl)amino)-1,2,3,4-tetrahydroisoquinoline-2-carbonyl)piperidine-1-carbonyl)piperidin-1-yl)-4-oxobenzo[d][1,2,3]triazin-3 (4H)-yl)piperidin-2,6-one] | 0.0001 to 0.01 | 0.01 to 1
7 | Cc1cccc(C)c1Nc1nn(C)c2nc(Nc3ccc4c(c3)CN(C(=O)C3CCN(C(=O)C5CCN(c6ccc7c(c6)C(=O)N(C6CCC(=O)NC6=O)C7=O)CC5)CC3)CC4)ncc12 (stereo not drawn) [Compound 54, 5-(4-(4-(7-((3-((2,6-Dimethylphenyl)amino)-1-methyl-1H-pyrazolo[3,4-d]pyrimidin-6-yl)amino)-1,2,3,4-tetrahydroisoquinoline-2-carbonyl)piperidine-1-carbonyl)piperidin-1-yl)-2-(2,6-dioxopiperidin-3-yl)isoindoline-1,3-dione] | 0.0001 to 0.01 | 0.01 to 1

The next lines start with the values.

Row | DC50 [1] [µM] | DC50 [2] [µM] | SMILES
8 | 0.0001 to 0.01 | 1 to 10 | Cc1cccc(C)c1Nc1nn(C)c2nc(Nc3ccc4c(c3)CN(CCOCCOCC(=O)Nc3ccc5c(c3)C(=O)N(C3CCC(=O)NC3=O)C5=O)CC4)ncc12 (stereo not drawn) [Compound 23, 2-(2-(2-(7-((3-((2,6-Dimethylphenyl)amino)-1-methyl-1H-pyrazolo[3,4-d]pyrimidin-6-yl)amino)-3,4-dihydroisoquinolin-2 (1H)-yl)ethoxy)ethoxy)-N-(2-(2,6-dioxopiperidin-3-yl)-1,3-dioxoisoindolin-5-yl)acetamide]
9 | 0.0001 to 0.01 | 0.01 to 1 | Cc1cccc(C)c1Nc1nn(C)c2nc(Nc3ccc4c(c3)CN(CC3CCN(c5ccc6c(=O)n(C7CCC(=O)NC7=O)nnc6c5)CC3)CC4)ncc12 (stereo not drawn) [Compound 53, 3-(7-(4-((7-((3-((2,6-Dimethylphenyl)amino)-1-methyl-1H-pyrazolo[3,4-d]pyrimidin-6-yl)amino)-3,4-dihydroisoquinolin-2 (1H)-yl)methyl)piperidin-1-yl)-4-oxobenzo[d][1,2,3]triazin-3 (4H)-yl)piperidin-2,6-one]
10 | 0.0001 to 0.01 | 1 to 10 | Cc1cccc(C)c1Nc1nn(C)c2nc(Nc3ccc4c(c3)CN(C(=O)[C@H]3CCCN3C(=O)C3CCN(c5ccc6c(c5)C(=O)N(C5CCC(=O)NC5=O)C6=O)CC3)CC4)ncc12 (stereo partly drawn) [Compound 26, 5-(4-((R)-2-(7-((3-((2,6-Dimethylphenyl)amino)-1-methyl-1H-pyrazolo[3,4-d]pyrimidin-6-yl)amino)-1,2,3,4-tetrahydroisoquinoline-2-carbonyl)pyrrolidine-1-carbonyl)piperidin-1-yl)-2-(2,6-dioxopiperidin-3-yl)isoindoline-1,3-dione]
11 | 0.0001 to 0.01 | 1 to 10 | Cc1cccc(C)c1Nc1nn(C)c2nc(Nc3ccc4c(c3)CN(CCOCCNC(=O)COc3ccc5c(c3)C(=O)N(C3CCC(=O)NC3=O)C5=O)CC4)ncc12 (stereo not drawn) [Compound 25, N-(2-(2-(7-((3-((2,6-Dimethylphenyl)amino)-1-methyl-1H-pyrazolo[3,4-d]pyrimidin-6-yl)amino)-3,4-dihydroisoquinolin-2 (1H)-yl)ethoxy)ethyl)-2-((2-(2,6-dioxopiperidin-3-yl)-1,3-dioxoisoindolin-5-yl)oxy)acetamide]
12 | 0.0001 to 0.01 | 0.01 to 1 | Cc1cccc(C)c1Nc1nn(C)c2nc(Nc3ccc4c(c3)CN(C(=O)COCCOCCOCCOCCNc3ccc5c(c3)C(=O)N(C3CCC(=O)NC3=O)C5=O)CC4)ncc12 (stereo not drawn) [Compound 8, 5-((14-(7-((3-((2,6-Dimethylphenyl)amino)-1-methyl-1H-pyrazolo[3,4-d]pyrimidin-6-yl)amino)-3,4-dihydroisoquinolin-2 (1H)-yl)-14-oxo-3,6,9,12-tetraoxatetradecyl)amino)-2-(2,6-dioxopiperidin-3-yl)isoindoline-1,3-dione]
